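Briefly, cells in 96-well plates were exposed to five compound concentrations for 48 h, and endpoints were estimated by linear interpolation. TGI: concentration producing complete growth inhibition.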
Legend:
Experiment in all cases: growth of human tumour cells (NCI), 48 h
HL-60(TB) leukemia = system: HL-60(TB) leukemia
CAKI-1 renal = system: CAKI-1 renal
UO-31 renal = system: UO-31 renal
SK-MEL-2 melanoma = system: SK-MEL-2 melanoma
786-0 renal = system: 786-0 renal
SF-295 CNS = system: SF-295 CNS
EKVX NSCLC = system: EKVX NSCLC
OVCAR-3 ovarian = system: OVCAR-3 ovarian
IGROV1 ovarian = system: IGROV1 ovarian
OVCAR-8 ovarian = system: OVCAR-8 ovarian
A549 NSCLC = system: A549 NSCLC
HT29 colon = system: HT29 colon
RXF 393 renal = system: RXF 393 renal
U251 CNS = system: U251 CNS
MDA-MB-435 = system: MDA-MB-435
MDA-N = system: MDA-N
MCF7 breast = system: MCF7 breast

Row | Compound | TGI (HL-60(TB) leukemia) | TGI (CAKI-1 renal) | TGI (UO-31 renal) | TGI (SK-MEL-2 melanoma) | TGI (786-0 renal) | TGI (SF-295 CNS) | TGI (EKVX NSCLC) | TGI (OVCAR-3 ovarian) | TGI (IGROV1 ovarian) | TGI (OVCAR-8 ovarian) | TGI (A549 NSCLC) | TGI (HT29 colon) | TGI (RXF 393 renal) | TGI (U251 CNS) | TGI (MDA-MB-435) | TGI (MDA-N) | TGI (MCF7 breast)
1 | CCCCOC(=O)C1C2CCC(O2)C1C(=O)OCCCC (centres undefined) | > 100 µM | > 100 µM | > 100 µM | > 100 µM | > 60.9 µM | > 100 µM | > 100 µM | > 100 µM | > 100 µM | > 100 µM | > 100 µM | > 64.2 µM | > 86.8 µM | > 100 µM | – | – | –
2 | Cn1cc(C(=O)NCCC(=N)N)cc1NC(=O)C1=[N+](C)C=C(NC(=O)c2cccc(C(=O)NC3=CC(C(=O)Nc4cc(C(=O)NCCC(=N)N)cn4C)=[N+](C)C3)c2)C1 | > 100 µM | > 100 µM | > 100 µM | > 100 µM | > 100 µM | > 100 µM | > 100 µM | > 100 µM | > 100 µM | > 100 µM | > 100 µM | > 100 µM | > 100 µM | > 100 µM | – | – | –
3 | O=c1oc2ccc3ccccc3c2cc1-c1cn2ccccc2n1 | > 100 µM | 75.1 µM | > 100 µM | > 100 µM | > 100 µM | > 100 µM | > 100 µM | > 100 µM | > 100 µM | > 100 µM | > 100 µM | 77.5 µM | > 100 µM | > 100 µM | > 100 µM | > 100 µM | –
4 | O=C1CCCCC/C1=C\c1cccc(Cl)c1 | – | > 100 µM | > 100 µM | > 100 µM | > 100 µM | 50.2 µM | > 100 µM | > 100 µM | > 100 µM | – | > 100 µM | > 100 µM | – | > 100 µM | 94.4 µM | > 100 µM | –
5 | Oc1ccccc1/C=C/c1csnn1 | 99.7 µM | > 100 µM | > 100 µM | > 100 µM | > 31.6 µM | > 100 µM | > 100 µM | > 100 µM | > 100 µM | > 100 µM | > 100 µM | > 100 µM | > 100 µM | > 100 µM | – | – | –
6 | C=Cc1ccc(C)[n+](C[Si](C)(C)O[Si](C)(C)C)c1 | – | > 100 µM | > 100 µM | > 100 µM | > 100 µM | > 100 µM | > 100 µM | > 100 µM | > 100 µM | > 100 µM | > 100 µM | > 100 µM | – | > 100 µM | – | – | –
7 | COC(=O)[C@@H]1CN(C(C)=O)C(=O)N1 | > 100 µM | > 100 µM | > 100 µM | > 100 µM | > 100 µM | > 100 µM | > 100 µM | > 100 µM | > 100 µM | > 100 µM | > 100 µM | > 100 µM | > 100 µM | > 100 µM | > 100 µM | > 100 µM | –
8 | CCCCNc1nc(C#N)c(N)s1 | > 100 µM | > 100 µM | > 100 µM | > 100 µM | > 100 µM | > 100 µM | – | > 100 µM | > 100 µM | > 100 µM | > 100 µM | > 100 µM | – | > 100 µM | – | – | –
9 | O=C(c1cccs1)N(C(=S)N1CCN(c2ccccn2)CC1)c1ccccc1 | > 100 µM | > 100 µM | > 100 µM | > 100 µM | > 100 µM | > 100 µM | – | > 100 µM | > 100 µM | > 100 µM | > 100 µM | > 100 µM | > 100 µM | > 100 µM | – | – | –
10 | O=c1[nH]c2cc([N+](=O)[O-])ccc2nc1/C(=N/Nc1ccccc1)C(O)c1ccccc1Cl (centres undefined) | > 100 µM | – | > 100 µM | > 100 µM | > 100 µM | > 100 µM | > 100 µM | > 100 µM | > 100 µM | > 100 µM | > 100 µM | > 100 µM | > 100 µM | > 100 µM | – | – | –
11 | CC(=O)OC1COC(n2c(O)c(N=NC(N)=S)c3cc(Br)ccc32)C(OC(C)=O)C1OC(C)=O (centres undefined) | > 100 µM | > 100 µM | – | > 100 µM | > 100 µM | > 100 µM | > 100 µM | > 100 µM | > 100 µM | > 100 µM | > 100 µM | > 100 µM | > 100 µM | > 100 µM | – | – | –
12 | O=C1NC2ON=C(c3ccccc3)C2C2ON=C(c3ccccc3)N12 (centres undefined) | – | > 100 µM | > 100 µM | – | > 100 µM | > 100 µM | > 100 µM | > 100 µM | > 100 µM | > 100 µM | > 100 µM | > 100 µM | > 100 µM | – | – | > 100 µM | > 100 µM
13 | COC(=O)N/N=C(\Cc1ccccc1)CN(C)C | > 100 µM | – | – | > 100 µM | > 100 µM | > 100 µM | > 100 µM | > 100 µM | > 100 µM | > 100 µM | > 100 µM | > 100 µM | > 100 µM | > 100 µM | – | – | –
14 | O=C(CSc1nnc(-c2ccc(N=Cc3ccc(Cl)cc3)cc2)o1)Nc1ccccc1[N+](=O)[O-] | > 100 µM | – | > 100 µM | > 100 µM | > 100 µM | > 100 µM | > 100 µM | – | – | > 100 µM | > 100 µM | > 100 µM | > 100 µM | > 100 µM | – | – | –
15 | O=[N+]([O-])/C(C(Cl)=C(Cl)Cl)=C(\N1CCOCC1)n1nnc2ccccc21 | – | 31.6 µM | 33 µM | 47.7 µM | 44.8 µM | 34.9 µM | 35.2 µM | 42.2 µM | – | – | 42.7 µM | – | – | 30.3 µM | 41 µM | 42.5 µM | 56.1 µM
16 | C/C(=N\NS(=O)(=O)c1ccc(C)cc1)C(CN1CCCCC1)C(c1ccccc1)c1c(O)c2ccccc2oc1=O (centres undefined) | > 100 µM | > 100 µM | > 100 µM | > 100 µM | > 100 µM | > 100 µM | > 100 µM | > 100 µM | > 100 µM | > 100 µM | > 100 µM | > 100 µM | > 100 µM | > 100 µM | – | – | –
17 | NC(=O)N/N=C(\CC1OC(=O)c2ccccc21)c1ccco1 (centres undefined) | > 100 µM | > 100 µM | > 100 µM | > 100 µM | > 100 µM | > 100 µM | > 100 µM | > 100 µM | > 100 µM | – | > 100 µM | > 100 µM | > 100 µM | – | – | – | –
